Reference: BindingDB's records for doi:10.1021/acs.jmedchem.8b00789 (Laval University, 2018)

Experiments:
[1] = Antagonist activity at UT receptor in Sprague-Dawley rat thoracic aortic ring assessed as reduction in URP-induced contraction by measuring pEC50 for human urotensin-2-induced contraction at 1 uM pre-incubated for 30 mins before urotensin-2 stimulation (Rvb = 8.16 +/- 0.08 No_unit)
[2] = Antagonist activity at UT receptor in Sprague-Dawley rat thoracic aortic ring assessed as reduction in urotensin-2-induced contraction by measuring pEC50 for human urotensin-2-induced contraction at 1 uM pre-incubated for 30 mins before urotensin-2 stimulation (Rvb = 8.59 +/- 0.12 No_unit)
[3] = Antagonist activity at UT receptor in Sprague-Dawley rat thoracic aortic ring assessed as reduction in URP-induced contraction by measuring pEC50 for human urotensin-2-induced contraction at 1 x 10^-7M pre-incubated for 30 mins before urotensin-2 stimulation (Rvb = 8.16 +/- 0.08 No_unit)
[4] = Antagonist activity at UT receptor in Sprague-Dawley rat thoracic aortic ring assessed as reduction in URP-induced contraction by measuring pEC50 for human urotensin-2-induced contraction at 3 x 10^-10M pre-incubated for 30 mins before urotensin-2 stimulation (Rvb = 8.16 +/- 0.08 No_unit)
[5] = Antagonist activity at UT receptor in Sprague-Dawley rat thoracic aortic ring assessed as reduction in urotensin-2-induced contraction by measuring pEC50 for human urotensin-2-induced contraction at 1 x 10^-8M uM pre-incubated for 30 mins before urotensin-2 stimulation (Rvb = 8.59 +/- 0.12 No_unit)
[6] = Antagonist activity at UT receptor in Sprague-Dawley rat thoracic aortic ring assessed as reduction in urotensin-2-induced contraction by measuring pEC50 for human urotensin-2-induced contraction at 1 x 10^-7M uM pre-incubated for 30 mins before urotensin-2 stimulation (Rvb = 8.59 +/- 0.12 No_unit)

Row | Compound | EC50 [1] [nM] | EC50 [2] [nM] | EC50 [3] [nM] | EC50 [4] [nM] | EC50 [5] [nM] | EC50 [6] [nM]
1 | CC(C)[C@H](NC(=O)[C@@H]1CSSC[C@H](NC(=O)[C@H](C)N)C(=O)N[C@H](Cc2ccc(-c3ccccc3)cc2)C(=O)N[C@@H](Cc2c[nH]c3ccccc23)C(=O)N[C@@H](CCCCN)C(=O)N[C@@H](Cc2ccc(O)cc2)C(=O)N1)C(=O)O | 2.8 | 6.8 |  |  |  | 
2 | CC(C)[C@H](NC(=O)[C@@H]1CSSC[C@H](NC(=O)[C@H](C)N)C(=O)N[C@H](Cc2ccc(C#Cc3ccccc3)cc2)C(=O)N[C@@H](Cc2c[nH]c3ccccc23)C(=O)N[C@@H](CCCCN)C(=O)N[C@@H](Cc2ccc(O)cc2)C(=O)N1)C(=O)O | 18 | 5.4 |  |  |  | 
3 | CC(C)[C@H](NC(=O)[C@@H]1CSSC[C@H](NC(=O)[C@@H](N)CC(=O)O)C(=O)N[C@H](Cc2ccc(I)cc2)C(=O)N[C@@H](Cc2c[nH]c3ccccc23)C(=O)N[C@@H](CCCCN)C(=O)N[C@@H](Cc2ccc(O)cc2)C(=O)N1)C(=O)O | 12 | 1.1 |  |  |  | 
4 | CC(C)[C@H](NC(=O)[C@@H]1CSSC[C@H](NC(=O)[C@H](C)N)C(=O)N[C@H](Cc2ccc(I)cc2)C(=O)N[C@@H](Cc2c[nH]c3ccccc23)C(=O)N[C@@H](CCCCN)C(=O)N[C@@H](Cc2ccc(O)cc2)C(=O)N1)C(=O)O | 13 | 3.2 |  |  |  | 
5 | CC(C)[C@H](NC(=O)[C@@H]1CSSC[C@H](NC(=O)[C@H](C)N)C(=O)N[C@@H](Cc2ccc(-c3ccccc3)cc2)C(=O)N[C@@H](Cc2c[nH]c3ccccc23)C(=O)N[C@@H](CCCCN)C(=O)N[C@@H](Cc2ccc(O)cc2)C(=O)N1)C(=O)O |  |  | 112 | 35 | 7.2 | 17
